ChEMBL document CHEMBL1649561, “H-NS modulates multidrug resistance of Salmonella enterica serovar Typhimurium by repressing multidrug efflux genes acrEF” (2009)
In brackets after ≈: the same amount, converted by molar mass.

Assays:
Assay type in all cases: functional
[1] = tested on: Salmonella enterica; assay: Antibacterial activity against Salmonella enterica ATCC 14028 by CLSI method
[2] = tested on: Salmonella enterica; assay: Antibacterial activity against acrB-deficient Salmonella enterica NKS175 by CLSI method
[3] = tested on: Salmonella enterica; assay: Antibacterial activity against acrB-deficient Salmonella enterica NKS291 harboring hns gene by CLSI method
[4] = tested on: Salmonella enterica; assay: Antibacterial activity against tolC-deficient Salmonella enterica NKS174 by CLSI method
[5] = tested on: Salmonella enterica; assay: Antibacterial activity against tolC-deficient Salmonella enterica NKS419 harboring hns gene by CLSI method
[6] = tested on: Salmonella enterica; assay: Antibacterial activity against acrEF-deficient Salmonella enterica NKS176 by CLSI method
[7] = tested on: Salmonella enterica; assay: Antibacterial activity against acrB-deficient Salmonella enterica NKS422 harboring acrEF gene by CLSI method
[8] = tested on: Salmonella enterica; assay: Antibacterial activity against acrB-deficient Salmonella enterica NKS416 harboring acrEF, hns gene by CLSI method

| SMILES | MIC [1] [µg/mL] | MIC [2] [µg/mL] | MIC [3] [µg/mL] | MIC [4] [µg/mL] | MIC [5] [µg/mL] | MIC [6] [µg/mL] | MIC [7] [µg/mL] | MIC [8] [µg/mL] |
| --- | --- | --- | --- | --- | --- | --- | --- | --- |
| Cn1nnnc1SCC1=C(C(=O)O)N2C(=O)[C@@H](NC(=O)[C@H](O)c3ccccc3)[C@H]2SC1 [CEFAMANDOLE] | 1 (≈ 2.16 µM) | 0.063 (≈ 0.136 µM) | 0.25 (≈ 0.541 µM) | 0.063 (≈ 0.136 µM) | 0.063 (≈ 0.136 µM) | 0.5 (≈ 1.08 µM) | 0.063 (≈ 0.136 µM) | 0.063 (≈ 0.136 µM) |
| Cc1onc(-c2ccccc2Cl)c1C(=O)N[C@@H]1C(=O)N2[C@@H]1SC(C)(C)[C@@H]2C(=O)O [CLOXACILLIN] | 512 (≈ 1170 µM) | 4 (≈ 9.18 µM) | 128 (≈ 294 µM) | 0.5 (≈ 1.15 µM) | 0.5 (≈ 1.15 µM) | 512 (≈ 1170 µM) | 4 (≈ 9.18 µM) | 4 (≈ 9.18 µM) |
| CN(C)c1ccc2nc3ccc(N(C)C)cc3[s+]c2c1.[Cl-] [METHYLENE BLUE ANHYDROUS] | > 512 | 16 | 512 | 16 | 16 | > 512 | 16 | 16 |
| CCOc1ccc2ccccc2c1C(=O)N[C@@H]1C(=O)N2[C@@H]1SC(C)(C)[C@@H]2C(=O)O [NAFCILLIN] | > 512 | 8 (≈ 19.3 µM) | 64 (≈ 154 µM) | 1 (≈ 2.41 µM) | 1 (≈ 2.41 µM) | > 512 | 4 (≈ 9.65 µM) | 4 (≈ 9.65 µM) |
| Cc1onc(-c2ccccc2)c1C(=O)N[C@@H]1C(=O)N2[C@@H]1SC(C)(C)[C@@H]2C(=O)O [OXACILLIN] | 512 (≈ 1280 µM) | 2 (≈ 4.98 µM) | 16 (≈ 39.9 µM) | 0.5 (≈ 1.25 µM) | 0.5 (≈ 1.25 µM) | 512 (≈ 1280 µM) | 1 (≈ 2.49 µM) | 1 (≈ 2.49 µM) |
| CC/N=c1\cc2oc3cc(NCC)c(C)cc3c(-c3ccccc3C(=O)OCC)c-2cc1C.Cl [RHODAMINE 6G HYDROCHLORIDE] | > 512 | 8 | 32 | 8 | 8 | > 512 | 8 | 8 |
